Structures can show the parent of a compound that is named as a salt.
These molecules were tested against T1, Calcium Sensing Receptor (CaSR) (Homo sapiens, UniProt P41180) (assay: In-vitro assay of calcimimetics through modulation of Calcium Sensing Receptor (intracellular calcium, FLIPR)). Conditions: HEK293 cells stably expressing hCaSR, increase in intracellular calcium, Fluo4NW dye, 0.3 mM CaCl2, 8-point assay, read-out: EC50 Range.
T1 construct: expressed in transfected cells
T1 sequence (P41180 20-1078): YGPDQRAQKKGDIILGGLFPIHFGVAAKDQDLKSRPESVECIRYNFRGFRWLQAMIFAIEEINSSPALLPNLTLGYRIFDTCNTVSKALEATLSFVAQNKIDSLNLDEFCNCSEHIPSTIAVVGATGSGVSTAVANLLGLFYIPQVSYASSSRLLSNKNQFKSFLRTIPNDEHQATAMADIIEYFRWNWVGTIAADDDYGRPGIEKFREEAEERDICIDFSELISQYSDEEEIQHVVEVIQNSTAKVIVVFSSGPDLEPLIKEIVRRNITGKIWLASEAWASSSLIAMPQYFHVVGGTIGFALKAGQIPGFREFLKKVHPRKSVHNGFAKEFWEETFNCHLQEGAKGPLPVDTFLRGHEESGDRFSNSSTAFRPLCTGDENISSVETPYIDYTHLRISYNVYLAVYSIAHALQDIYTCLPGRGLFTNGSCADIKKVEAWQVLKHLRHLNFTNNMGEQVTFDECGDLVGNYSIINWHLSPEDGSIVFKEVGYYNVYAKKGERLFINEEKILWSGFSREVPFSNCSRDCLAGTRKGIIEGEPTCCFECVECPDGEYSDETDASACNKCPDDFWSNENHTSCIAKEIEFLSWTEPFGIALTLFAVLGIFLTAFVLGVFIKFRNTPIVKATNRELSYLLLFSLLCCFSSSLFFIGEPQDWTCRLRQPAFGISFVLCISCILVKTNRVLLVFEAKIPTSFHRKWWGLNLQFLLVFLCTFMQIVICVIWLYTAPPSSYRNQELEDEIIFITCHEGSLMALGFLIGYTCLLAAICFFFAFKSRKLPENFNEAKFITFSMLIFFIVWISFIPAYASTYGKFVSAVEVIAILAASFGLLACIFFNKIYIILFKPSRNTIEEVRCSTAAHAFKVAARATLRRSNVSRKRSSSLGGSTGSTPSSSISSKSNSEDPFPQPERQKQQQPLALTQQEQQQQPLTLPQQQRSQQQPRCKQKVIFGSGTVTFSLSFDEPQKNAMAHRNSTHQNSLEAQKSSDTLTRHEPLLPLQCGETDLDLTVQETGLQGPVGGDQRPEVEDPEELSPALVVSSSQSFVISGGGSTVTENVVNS
Type: cell-based
Method: In-vitro assay method of Calcimimetics through modulation of Calcium Sensing Receptor (CaSR):
The ability of the compounds to modulate Calcium sensing receptor is determined by measuring an increase in intracellular calcium [Ca^2+]i. Stably transfected HEK293 cells expressing hCaSR_pTriEx-3 hygro vector are developed. Cells are grown overnight on a 96-well plate to 80% confluency in Ham's F12 containing 20% FBS at 37° C., 5% CO2. Subsequently, cells are washed extensively with 20 mM HEPES buffer containing 126 mM […], 1 mM MgCl2 and 4 mM KCl to remove serum components that might interfere with the assay. Cells are loaded with calcium sensing Fluo4NW dye in HEPES base buffer containing 0.1% BSA and 1 mg/ml glucose for 30 minutes to measure changes in intracellular calcium. The activities of the compounds are measured in FLIPR using 0.3 mM CaCl2 in 20 mM HEPES base buffer. The effectiveness of the compound to modulate receptor activity is determined by calculating the EC50 responses for that compound in an 8-point assay and plotted using GraphPad Prism 5.

Compared with `COc1cc([C@@H](C)NC[C@H]2C[C@@H](c3ccc(C)c(C(=O)O)c3)c3ccccc3O2)ccc1F` [Example 116, 5-((2R,4S)-2-((((R)-1-(4-Fluoro-3-methoxyphenyl)ethyl)amino)methyl)chroman-4-yl)-2-methyl benzoic acid hydrochloride], `Cc1ccc([C@@H]2C[C@H](CN[C@H](C)c3ccc(F)c4ccccc34)Oc3ccccc32)cc1C(=O)O` [Example 119b, 5-((2R,4S)-2-((((R)-1-(4-Fluoronaphthalen-1-yl)ethyl)amino)methyl)chroman-4-yl)-2-methyl benzoic acid hydrochloride] is lower in EC50: 0.05 to 0.2 µM for the first, less than 0.02 µM for the second. The second is the more potent here.

First: Cc1ccc([C@@H]2C[C@H](CCN[C@H](C)c3cccc4ccccc34)Oc3ccccc32)cc1C(=O)O [Example 124, 2-Methyl-5-((2R,4S)-2-(2-(((R)-1-(naphthalen-1-yl)ethyl)amino)ethyl)chroman-4-yl)benzoic acid hydrochloride]
Second: CCN(C)C(=O)c1cc([C@@H]2C[C@H](CN[C@H](C)c3cccc4ccccc34)Oc3ccccc32)ccc1C [Example 145, N-Ethyl-N,2-dimethyl-5-((2R,4S)-2-((((R)-1-(naphthalen-1-yl)ethyl)amino)methyl)chroman-4-yl)benzamide hydrochloride]
The EC50 of the first is lower: less than 0.02 µM for the first, 0.05 to 0.2 µM for the second. The first is the more potent here.

`C[C@@H](NCCC[C@H]1C[C@@H](c2ccc(C(=O)O)cc2)c2ccccc2O1)c1ccc(F)c2ccccc12` [Example 136, 4-((2S,4S)-2-(3-(((R)-1-(4-Fluoronaphthalen-1-yl)ethyl)amino)propyl)chroman-4-yl)benzoic acid hydrochloride] and `C[C@@H](NC[C@H]1C[C@@H](c2cccc(C(=O)NCC(=O)O)c2)c2ccccc2O1)c1cccc2ccccc12` [Example 140, 2-(3-((2R,4S)-2-((((R)-1-(Naphthalen-1-yl)ethyl)amino)methyl)chroman-4-yl)benzamido) acetic acid hydrochloride] cannot be ordered by EC50: less than 0.02 µM for the first, less than 0.02 µM for the second.

`CCN(CC)C(=O)c1cc([C@@H]2C[C@H](CN[C@H](C)c3cccc4ccccc34)Oc3ccccc32)ccc1C` [Example 146, N,N-Diethyl-2-methyl-5-((2R,4S)-2-((((R)-1-(naphthalen-1-yl)ethyl)amino)methyl)chroman-4-yl)benzamide hydrochloride] showed an EC50 of 0.02 to 0.05 µM.

Source: US9598391B2, “Substituted chroman compounds as calcium sensing receptor modulators” (LUPIN LIMITED, priority 2012, dated 2017)
